Converted amounts (≈) assume the structure as drawn. “Also recorded” adds a separate entry of the source.
Key:
[1] = Hygroscopicity by DVS (Dynamic Vapor Sorption); assay type: physicochemical
[2] = Solubility of Form A in organic solvents; assay type: physicochemical
[3] = Solubility of Form A in water; assay type: physicochemical
[4] = Physical stability and conversion of solid forms (polymorph screen)

In the case of O=C1Nc2ccccc2C(c2ccccc2)=N[C@@H]1Nc1nnc(-c2ncc(C(F)(F)F)cc2N2CCOCC2)o1 [Form A], the hygroscopicity [1] is reported as “not hygroscopic; also recorded: Anhydrous/unsolvated, non-hygroscopic”, the “weight gain during adsorption” value ([1]; DVS, adsorption to 95% RH) is reported as 0.1 wt % and the “moisture loss on desorption” value ([1]; DVS, desorption to 5% RH) is reported as “losing all of the gained moisture”. For the same compound, the “solubility in organic solvents” value ([2]; alcohols, ethyl acetate, acetonitrile) was “relatively poor solubility”, the “solubility in organic solvents” value ([2]; dichloromethane, 1,4-dioxane, tetrahydrofuran, acetone) was “highly soluble” and the solubility ([3]; aqueous buffer, from pH 4-8) was ~2 µg/mL (≈ 3.64 µM). For the same compound, the solubility ([3]; simulated gastric fluid, at pH 1) was 13.3 µg/mL (≈ 24.2 µM).
In the case of O=C1Nc2ccccc2C(c2ccccc2)=N[C@@H]1Nc1nnc(-c2ncc(C(F)(F)F)cc2N2CCOCC2)o1 [Form F], the “conversion to another solid form” value [4] is reported as “Converts to G in ethyl acetate”.
For O=C1Nc2ccccc2C(c2ccccc2)=N[C@@H]1Nc1nnc(-c2ncc(C(F)(F)F)cc2N2CCOCC2)o1 [Form D], the “conversion to another solid form” value [4] was “converts to Form F upon air drying”.
For O=C1Nc2ccccc2C(c2ccccc2)=N[C@@H]1Nc1nnc(-c2ncc(C(F)(F)F)cc2N2CCOCC2)o1 [Form G], the “physical stability of solid form” value [4] was “physically stable at ambient temperature”.
For O=C1Nc2ccccc2C(c2ccccc2)=N[C@@H]1Nc1nnc(-c2ncc(C(F)(F)F)cc2N2CCOCC2)o1 [Amorphous], the hygroscopicity [1] was “Appeared non-hygroscopic” and the “conversion to another solid form” value [4] was “Crystallizes to A”.
In the case of O=C1Nc2ccccc2C(c2ccccc2)=N[C@@H]1Nc1nnc(-c2ncc(C(F)(F)F)cc2N2CCOCC2)o1 [Material C], the “conversion to another solid form” value [4] is reported as “desolvate readily to Form A; also recorded: Likely converts to A on drying”.
